Experimental data taken from ChEMBL document CHEMBL4177603 (Bioorg Med Chem Lett, 2017).
Active and inactive are the calls of the source. The rule behind the calls is not given here.

Key:
[1] = molecular target: cGMP-inhibited 3',5'-cyclic phosphodiesterase 3B (Homo sapiens) (UniProt Q13370); assay: Inhibition of recombinant human PDE3B at 10 uM using [3H]cAMP as substrate measured after 20 mins by scintillation counting method relative to control
[2] = molecular target: T1, Alpha-1A adrenergic receptor (Homo sapiens) (UniProt P35348); assay: Antagonist activity at recombinant human alpha1a receptor expressed in CHOK1 cells assessed as inhibition of epinephrine-induced calcium flux at 10 uM by fluorescence assay relative to control; format: functional, cell-based
T1 sequence (whole entry): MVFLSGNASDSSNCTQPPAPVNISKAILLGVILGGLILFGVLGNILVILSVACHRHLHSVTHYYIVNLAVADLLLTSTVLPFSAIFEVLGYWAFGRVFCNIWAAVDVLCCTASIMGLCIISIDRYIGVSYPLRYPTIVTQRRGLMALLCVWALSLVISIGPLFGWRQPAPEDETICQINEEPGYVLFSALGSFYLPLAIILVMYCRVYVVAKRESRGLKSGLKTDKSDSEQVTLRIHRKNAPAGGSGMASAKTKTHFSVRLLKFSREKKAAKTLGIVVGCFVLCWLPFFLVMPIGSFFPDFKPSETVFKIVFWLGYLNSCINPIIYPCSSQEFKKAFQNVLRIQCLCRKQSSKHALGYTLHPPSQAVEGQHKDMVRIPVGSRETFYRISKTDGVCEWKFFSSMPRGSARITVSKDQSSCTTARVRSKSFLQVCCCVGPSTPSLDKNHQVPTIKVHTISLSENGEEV

[3] = molecular target: Kappa-type opioid receptor (Homo sapiens) (UniProt P41145); assay: Agonist activity at human KOR assessed as increase in calcium flux at 10 uM by fluorimetric method relative to control; format: functional
[4] = molecular target: Proto-oncogene tyrosine-protein kinase Src (Homo sapiens) (UniProt P12931); assay: Inhibition of recombinant human SRC at 10 uM using Ulight-Poly GAT[EAY(1:1:1)]n as substrate after 10 mins by LANCE assay
Sequence of Proto-oncogene tyrosine-protein kinase Src (Homo sapiens) (P12931 2-536 limits assumed): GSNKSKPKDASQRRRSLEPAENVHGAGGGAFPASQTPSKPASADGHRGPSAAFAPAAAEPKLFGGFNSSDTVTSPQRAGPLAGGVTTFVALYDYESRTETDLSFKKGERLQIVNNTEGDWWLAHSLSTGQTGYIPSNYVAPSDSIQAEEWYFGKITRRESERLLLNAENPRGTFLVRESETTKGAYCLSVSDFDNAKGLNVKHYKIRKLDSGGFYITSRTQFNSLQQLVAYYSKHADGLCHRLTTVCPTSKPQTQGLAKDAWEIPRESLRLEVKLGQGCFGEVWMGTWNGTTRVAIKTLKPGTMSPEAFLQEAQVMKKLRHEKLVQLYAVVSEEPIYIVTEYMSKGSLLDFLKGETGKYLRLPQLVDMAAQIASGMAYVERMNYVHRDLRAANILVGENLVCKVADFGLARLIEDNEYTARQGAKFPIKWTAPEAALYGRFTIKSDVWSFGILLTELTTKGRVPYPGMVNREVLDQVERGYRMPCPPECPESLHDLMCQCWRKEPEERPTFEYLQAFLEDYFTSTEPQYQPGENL

[5] = molecular target: D(2) dopamine receptor (Homo sapiens) (UniProt P14416); assay: Agonist activity at recombinant human D2S receptor expressed in HEK293 cells assessed as effect on impedance at 10 uM by cellular dielectric spectroscopic method relative to control; format: cell-based
[6] = molecular target: Alpha-2B adrenergic receptor (Homo sapiens) (UniProt P18089); assay: Agonist activity at recombinant human alpha2b receptor expressed in HEK293 cells assessed as increase in cAMP accumulation at 10 uM measured after 30 mins by HTRF assay relative to control; format: functional, cell-based
[7] = tested on: Mus musculus; assay: Analgesic activity in mouse assessed as inhibition of formalin-induced pain at 0.28 to 5.4 mg/kg, iv pretreated for 90 mins followed by formalin addition measured up to 40 mins; format: functional, organism-based
[8] = molecular target: D(1A) dopamine receptor (Homo sapiens) (UniProt P21728); assay: Agonist activity at recombinant human D1 receptor expressed in CHOK1 cells assessed as increase in cAMP accumulation at 10 uM after 30 mins by HTRF assay relative to control; format: functional, cell-based
[9] = molecular target: Cannabinoid receptor 1 (Homo sapiens) (UniProt P21554); assay: Antagonist activity at recombinant human CB1 receptor expressed in CHOK1 cells assessed as inhibition of CP 55940-induced cAMP accumulation at 10 uM after 20 mins by HTRF assay relative to control; format: functional, cell-based
Sequence of Cannabinoid receptor 1 (Homo sapiens) (P21554 whole entry, the tested form may be a part): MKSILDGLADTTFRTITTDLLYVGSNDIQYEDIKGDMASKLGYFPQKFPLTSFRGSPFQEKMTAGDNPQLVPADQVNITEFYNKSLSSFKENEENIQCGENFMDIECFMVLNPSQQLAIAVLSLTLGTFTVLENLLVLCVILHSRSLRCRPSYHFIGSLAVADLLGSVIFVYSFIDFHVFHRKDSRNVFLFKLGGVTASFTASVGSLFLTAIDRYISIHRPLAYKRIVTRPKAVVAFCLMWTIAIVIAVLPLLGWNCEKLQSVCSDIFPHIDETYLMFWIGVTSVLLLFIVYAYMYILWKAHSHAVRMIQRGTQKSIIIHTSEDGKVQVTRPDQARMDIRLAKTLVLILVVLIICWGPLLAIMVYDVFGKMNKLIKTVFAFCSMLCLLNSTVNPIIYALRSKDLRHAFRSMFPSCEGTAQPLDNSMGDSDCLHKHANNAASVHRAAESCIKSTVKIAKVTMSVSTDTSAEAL

[10] = Unbound clearance rat plasma at 0.3 mg/kg, iv via infusion for 1 hr; format: ADME, organism-based; details: in vivo
[11] = molecular target: Androgen receptor (Homo sapiens) (UniProt P10275); assay: Displacement of [3H]methyltrienolone from human androgen receptor at 10 uM after 1440 mins by scintillation counting method
Sequence of Androgen receptor (Homo sapiens) (P10275 whole entry): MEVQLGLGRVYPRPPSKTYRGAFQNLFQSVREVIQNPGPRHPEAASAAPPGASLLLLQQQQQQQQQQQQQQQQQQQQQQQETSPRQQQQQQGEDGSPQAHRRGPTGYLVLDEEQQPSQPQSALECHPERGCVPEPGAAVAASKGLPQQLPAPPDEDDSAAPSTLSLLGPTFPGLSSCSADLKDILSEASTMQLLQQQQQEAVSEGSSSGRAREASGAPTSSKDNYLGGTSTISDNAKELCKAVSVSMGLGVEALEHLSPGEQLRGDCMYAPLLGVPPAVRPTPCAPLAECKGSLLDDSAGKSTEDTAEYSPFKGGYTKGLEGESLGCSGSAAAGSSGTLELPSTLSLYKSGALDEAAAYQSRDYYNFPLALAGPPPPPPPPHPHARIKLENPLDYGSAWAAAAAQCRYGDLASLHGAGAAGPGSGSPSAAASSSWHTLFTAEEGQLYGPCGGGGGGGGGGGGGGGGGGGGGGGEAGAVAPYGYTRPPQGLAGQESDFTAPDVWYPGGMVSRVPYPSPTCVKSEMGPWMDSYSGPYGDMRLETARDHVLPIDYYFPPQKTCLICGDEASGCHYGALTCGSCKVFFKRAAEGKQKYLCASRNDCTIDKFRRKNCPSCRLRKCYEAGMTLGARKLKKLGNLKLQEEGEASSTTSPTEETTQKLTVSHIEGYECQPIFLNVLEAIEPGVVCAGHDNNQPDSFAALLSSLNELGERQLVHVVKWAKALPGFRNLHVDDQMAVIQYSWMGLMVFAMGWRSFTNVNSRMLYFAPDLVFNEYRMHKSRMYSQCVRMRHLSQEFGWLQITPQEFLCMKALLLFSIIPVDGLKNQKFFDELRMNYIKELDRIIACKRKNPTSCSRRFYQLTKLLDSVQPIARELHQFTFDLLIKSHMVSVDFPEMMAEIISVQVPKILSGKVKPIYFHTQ

[12] = molecular target: Histamine H1 receptor (Homo sapiens) (UniProt P35367); assay: Antagonist activity at human H1 receptor expressed in HEK293 cells assessed as inhibition of histamine-induced calcium flux at 10 uM by fluorimetric method relative to control; format: functional, cell-based
[13] = Solubility of the compound in aqueous buffer at pH 3.2; format: physicochemical
[14] = Inhibition of cynomolgus monkey Nav1.7 expressed in HEK cells by automated patchXpress electrophysiology method; format: cell-based; details: Macaca fascicularis, HEK293
[15] = Intrinsic clearance in dog hepatocytes assessed per million cells; format: ADME, cell-based, Canis lupus familiaris, Hepatocyte; details: read-out: CLH
[16] = Solubility of the compound in aqueous buffer at pH 5.5; format: physicochemical
[17] = molecular target: Prostaglandin G/H synthase 2 (Homo sapiens, UniProt P35354); assay: Inhibition of recombinant human COX2 using arachidonic acid as substrate measured after 5 mins by fluorescence assay
Sequence of Prostaglandin G/H synthase 2 (P35354 whole entry): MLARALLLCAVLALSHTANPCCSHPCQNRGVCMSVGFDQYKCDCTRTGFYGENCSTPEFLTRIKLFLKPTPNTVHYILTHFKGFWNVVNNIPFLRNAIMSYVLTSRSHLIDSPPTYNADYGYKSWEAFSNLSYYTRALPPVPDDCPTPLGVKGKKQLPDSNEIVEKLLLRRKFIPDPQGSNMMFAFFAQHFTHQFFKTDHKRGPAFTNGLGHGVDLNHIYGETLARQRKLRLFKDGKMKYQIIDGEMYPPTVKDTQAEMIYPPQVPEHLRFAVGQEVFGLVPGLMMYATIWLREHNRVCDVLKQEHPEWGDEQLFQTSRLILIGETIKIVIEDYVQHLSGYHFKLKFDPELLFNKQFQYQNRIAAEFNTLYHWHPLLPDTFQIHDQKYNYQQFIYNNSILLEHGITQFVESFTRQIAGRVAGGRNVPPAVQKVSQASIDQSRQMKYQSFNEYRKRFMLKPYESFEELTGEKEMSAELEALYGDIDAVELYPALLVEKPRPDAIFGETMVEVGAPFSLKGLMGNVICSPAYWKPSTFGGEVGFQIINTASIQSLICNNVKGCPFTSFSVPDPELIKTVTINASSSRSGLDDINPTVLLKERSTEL

[18] = molecular target: 3',5'-cyclic-AMP phosphodiesterase 4D (Homo sapiens) (UniProt Q08499); assay: Inhibition of recombinant human PDE4D2 at 10 uM using [3H]cAMP as substrate measured after 20 mins by scintillation counting method relative to control
[19] = Intrinsic clearance in rat liver microsomes; format: ADME, microsome; details: read-out: CLH
[20] = molecular target: T2, Muscarinic acetylcholine receptor M1 (Homo sapiens) (UniProt P11229); assay: Displacement of [3H]pirenzepine from recombinant human M1 receptor at 10 uM after 60 mins by scintillation counting method
T2 sequence (whole entry): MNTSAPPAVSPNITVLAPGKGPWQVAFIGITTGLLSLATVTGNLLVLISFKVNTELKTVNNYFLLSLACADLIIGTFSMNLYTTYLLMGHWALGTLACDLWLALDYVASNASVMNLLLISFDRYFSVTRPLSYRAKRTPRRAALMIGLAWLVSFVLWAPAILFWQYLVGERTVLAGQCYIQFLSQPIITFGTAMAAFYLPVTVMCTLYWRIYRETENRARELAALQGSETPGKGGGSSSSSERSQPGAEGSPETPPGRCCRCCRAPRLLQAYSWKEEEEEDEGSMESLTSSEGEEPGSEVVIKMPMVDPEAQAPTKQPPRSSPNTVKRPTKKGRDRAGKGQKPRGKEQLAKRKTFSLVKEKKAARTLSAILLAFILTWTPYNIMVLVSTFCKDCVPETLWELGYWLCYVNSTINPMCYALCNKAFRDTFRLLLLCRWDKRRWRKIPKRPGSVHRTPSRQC

[21] = molecular target: T1, Alpha-1A adrenergic receptor (Homo sapiens); assay: Agonist activity at recombinant human alpha1a receptor expressed in CHOK1 cells assessed as increase in calcium flux at 10 uM by fluorescence assay relative to control; format: functional, cell-based
[22] = molecular target: Alpha-2A adrenergic receptor (Homo sapiens) (UniProt P08913); assay: Agonist activity at recombinant human alpha2a receptor at 10 uM relative to control; format: functional
Sequence of Alpha-2A adrenergic receptor (Homo sapiens) (P08913 whole entry): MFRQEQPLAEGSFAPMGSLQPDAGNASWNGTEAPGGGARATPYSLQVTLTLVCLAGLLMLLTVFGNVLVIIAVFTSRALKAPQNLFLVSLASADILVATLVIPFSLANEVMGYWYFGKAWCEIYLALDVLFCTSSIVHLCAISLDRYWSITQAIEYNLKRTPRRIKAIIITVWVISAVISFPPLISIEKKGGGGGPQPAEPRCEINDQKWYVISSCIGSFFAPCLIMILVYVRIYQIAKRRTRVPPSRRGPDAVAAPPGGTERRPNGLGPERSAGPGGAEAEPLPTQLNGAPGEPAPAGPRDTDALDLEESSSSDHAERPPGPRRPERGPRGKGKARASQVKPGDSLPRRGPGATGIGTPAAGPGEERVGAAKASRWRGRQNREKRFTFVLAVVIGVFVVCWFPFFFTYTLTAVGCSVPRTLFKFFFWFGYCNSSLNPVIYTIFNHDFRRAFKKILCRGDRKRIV

[23] = species: Homo sapiens; assay: Inhibition of GABA-A receptor benzodiazepine site (unknown origin) at 10 uM by radioligand binding assay relative to control
[24] = molecular target: Adenosine receptor A2a (Homo sapiens) (UniProt P29274); assay: Agonist activity at recombinant human full-length adenosine A2a receptor expressed in HEK293 cells assessed as effect on impedance at 10 uM by cellular dielectric spectroscopic method relative to control; format: functional, cell-based
Sequence of Adenosine receptor A2a (Homo sapiens) (P29274 whole entry): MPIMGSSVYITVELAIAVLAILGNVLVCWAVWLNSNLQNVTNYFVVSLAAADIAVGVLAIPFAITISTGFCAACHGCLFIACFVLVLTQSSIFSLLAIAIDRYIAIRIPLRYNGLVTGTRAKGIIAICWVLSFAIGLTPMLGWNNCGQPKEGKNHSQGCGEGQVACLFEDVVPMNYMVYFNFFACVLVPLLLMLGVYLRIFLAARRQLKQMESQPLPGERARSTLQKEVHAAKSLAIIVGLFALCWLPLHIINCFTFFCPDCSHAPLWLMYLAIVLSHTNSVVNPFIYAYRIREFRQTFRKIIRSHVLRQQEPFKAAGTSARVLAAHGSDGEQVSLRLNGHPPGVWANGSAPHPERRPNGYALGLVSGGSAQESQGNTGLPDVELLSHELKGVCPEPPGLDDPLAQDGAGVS

[25] = molecular target: 5-hydroxytryptamine receptor 3A (Homo sapiens) (UniProt P46098); assay: Displacement of [3H]BRL 43694 from recombinant human 5-HT3 receptor at 10 uM measured after 120 mins by scintillation counting method
Sequence of 5-hydroxytryptamine receptor 3A (Homo sapiens) (P46098 whole entry): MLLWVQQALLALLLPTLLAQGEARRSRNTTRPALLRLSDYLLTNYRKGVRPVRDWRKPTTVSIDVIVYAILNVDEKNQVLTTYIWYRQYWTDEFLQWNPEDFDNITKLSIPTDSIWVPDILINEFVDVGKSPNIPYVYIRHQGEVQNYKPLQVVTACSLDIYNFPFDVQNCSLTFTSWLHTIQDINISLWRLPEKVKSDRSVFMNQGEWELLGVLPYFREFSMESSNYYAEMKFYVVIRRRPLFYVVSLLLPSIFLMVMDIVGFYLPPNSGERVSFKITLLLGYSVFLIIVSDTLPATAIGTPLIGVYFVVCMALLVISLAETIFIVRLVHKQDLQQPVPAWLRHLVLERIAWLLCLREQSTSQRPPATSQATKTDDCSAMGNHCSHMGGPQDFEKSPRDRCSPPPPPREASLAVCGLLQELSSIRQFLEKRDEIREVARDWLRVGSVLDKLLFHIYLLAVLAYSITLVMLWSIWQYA

[26] = Displacement of [3H]diltiazem from L-type calcium channel diltiazem binding site in rat brain after 120 mins by scintillation counting method

Sequence of cGMP-inhibited 3',5'-cyclic phosphodiesterase 3B (Homo sapiens) (Q13370 whole entry, looked up): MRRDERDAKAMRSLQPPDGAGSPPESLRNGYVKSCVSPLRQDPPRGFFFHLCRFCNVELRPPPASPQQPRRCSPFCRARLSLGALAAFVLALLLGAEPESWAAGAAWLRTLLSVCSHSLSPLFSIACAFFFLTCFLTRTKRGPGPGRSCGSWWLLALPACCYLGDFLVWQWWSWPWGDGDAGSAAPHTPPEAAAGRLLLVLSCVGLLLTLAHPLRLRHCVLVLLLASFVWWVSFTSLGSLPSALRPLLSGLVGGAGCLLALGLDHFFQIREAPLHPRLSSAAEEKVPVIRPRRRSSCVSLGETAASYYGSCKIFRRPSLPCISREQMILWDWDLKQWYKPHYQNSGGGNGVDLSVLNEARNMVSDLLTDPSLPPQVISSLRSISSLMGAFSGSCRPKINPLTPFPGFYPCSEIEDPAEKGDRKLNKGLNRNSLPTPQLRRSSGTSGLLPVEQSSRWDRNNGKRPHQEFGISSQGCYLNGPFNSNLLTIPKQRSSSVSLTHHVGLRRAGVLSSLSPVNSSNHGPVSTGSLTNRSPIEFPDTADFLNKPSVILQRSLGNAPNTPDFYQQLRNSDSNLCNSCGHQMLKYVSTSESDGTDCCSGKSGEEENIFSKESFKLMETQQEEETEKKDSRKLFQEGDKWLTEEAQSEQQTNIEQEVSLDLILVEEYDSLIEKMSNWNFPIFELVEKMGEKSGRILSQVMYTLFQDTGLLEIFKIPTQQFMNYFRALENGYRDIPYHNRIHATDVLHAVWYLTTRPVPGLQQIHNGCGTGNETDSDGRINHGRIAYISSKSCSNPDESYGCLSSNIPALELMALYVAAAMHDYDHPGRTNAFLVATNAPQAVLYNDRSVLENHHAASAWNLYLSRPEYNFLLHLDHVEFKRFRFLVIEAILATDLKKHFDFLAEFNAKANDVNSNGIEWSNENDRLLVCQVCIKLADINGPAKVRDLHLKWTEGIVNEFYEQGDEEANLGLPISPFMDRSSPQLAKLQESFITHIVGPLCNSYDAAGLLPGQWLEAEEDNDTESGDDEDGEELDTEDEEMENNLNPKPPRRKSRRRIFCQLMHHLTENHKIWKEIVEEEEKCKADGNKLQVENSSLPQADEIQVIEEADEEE

Question: What does the source list for N#Cc1cc(S(=O)(=O)Nc2ncns2)ccc1Oc1ccc(-c2cccc(C(F)(F)F)c2)cc1-c1ccnc(CNCCC2CCNCC2)c1?
Answer: inhibition [1]: -1%; inhibition [2]: 23%; Activity [3]: 15%; inhibition [4]: 9%; Activity [5]: -2%; Activity [6]: -2%; inhibition [7]: inactive; Activity [8]: 6%; inhibition [9]: 11%; CL free [10]: 1813.1 L/h/kg; inhibition [11]: 27%; inhibition [12]: -5%; solubility [13]: > 906 µg/mL; IC50 [14]: < 0.03 nM; hepatocyte CLint [15]: < 6 µL/min/1e6 cells; solubility [16]: > 1840 µg/mL; IC50 [17]: 3.65 µM; inhibition [18]: -8%; microsomal CLint [19]: < 14.1 µL/min/mg; inhibition [20]: 48%; Activity [21]: 7%; Activity [22]: -7%; inhibition [23]: 35%; Activity [24]: -2%; inhibition [25]: 27%; IC50 [26]: 5.3 µM; Ki [26]: 4.12 µM
